Reference: article PMC2621068 (Neuropeptides, 2008)

Experiments:
Kuming mice [1] = settings: mouse, in vivo
female Kuming mice = settings: mouse, in vivo
Kuming mice [2] = assay type: in vivo, mouse; settings: n = 8

With `CC(C(O)c1ccc(O)cc1)N1CCC(Cc2ccccc2)CC1` (centres unmarked) [ifenprodil, reference compound] the “Increase in paw width” value (Kuming mice [1]) was 1.10 ± 0.05 mm, the “Injected paw width, after formalin injection” value (Kuming mice [1]) was 2.70 ± 0.04 mm and the “Injected paw width, before formalin injection” value (Kuming mice [1]) was 1.59 ± 0.04 mm. For the same compound, the “Paw withdrawal latency after administration, 30 min” value (female Kuming mice) was 11.1 ± 3.7 s, the “Paw withdrawal latency after administration, 90 min” value (female Kuming mice) was 11.1 ± 4.6 s and the “Paw withdrawal latency after administration, 150 min” value (female Kuming mice) was 11.2 ± 3.0 s. The “Paw withdrawal latency after administration, 240 min” value (female Kuming mice) was 12.8 ± 3.0 s, the “Paw withdrawal latency before administration” value (female Kuming mice) was 10.8 ± 2.4 s and the “antinociception in the hot-plate test (in words)” value (female Kuming mice) was “had no effect”. For the same compound, the “first phase response of the formalin test (in words)” value (Kuming mice [2]) was “without effect in both phases” and the “second phase response of the formalin test (in words)” value (Kuming mice [2]) was “without effect in both phases”.
